The values that follow come from patent publication US7488740B2, “Substituted quinolin-4-ylamine analogues” (Neurogen Corporation, priority 2003, dated 2009).

pIC50: −log10 of the molar value.

This assay addresses T1, human capsaicin receptor (Homo sapiens, UniProt Q8NER1).
T1 construct: A cDNA encoding full length human capsaicin receptor recited in U.S. Pat. No. 6,482,611 was subcloned in the plasmid pBK-CMV; expressed in transfected cells
Kind of assay: Calcium mobilization assay (Example 6). As to conditions: concentration required to provide a 50% decrease in the fluorescence response of cells exposed to one IC50 of capsaicin. The assay is classed as cell-based. As to the method: Human embryonic kidney (HEK293) cells were transfected with the pBK-CMV expression construct encoding the full length human capsaicin receptor using standard methods. The transfected cells were selected for two weeks in media containing G418 (400 μg/ml) to obtain a pool of stably transfected cells. Independent clones were isolated from this pool by limiting dilution to obtain clonal stable cell lines for use in subsequent experiments.
Cells transfected with expression plasmids (as described in Example 4) and thereby expressing human capsaicin receptor are seeded and grown to 70-90% confluency in FALCON black-walled, clear-bottomed 96-well plates (#3904, BECTON-DICKINSON, Franklin Lakes, N.J.). The culture medium is emptied from the 96 well plates and FLUO-3 AM calcium sensitive dye (Molecular Probes, Eugene, Oreg.) is added to each well (dye solution: 1 mg FLUO-3 AM, 440 μL DMSO and 440 μl 20% pluronic acid in DMSO, diluted 1:250 in Krebs-Ringer HEPES (KRH) buffer (25 mM HEPES, 5 mM KCl, 0.96 mM NaH2PO4, 1 mM MgSO4, 2 mM CaCl2, 5 mM glucose, 1 mM probenecid, pH 7.4), 50 μl diluted solution per well). Plates are covered with aluminum foil and incubated at 37° C. for 1-2 hours in an environment containing 5% CO2. After the incubation, the dye is emptied from the plates, and the cells are washed once with KRH buffer, and, resuspended in KRH buffer.
Agonist (e.g., olvanil, capsaicin, or RTX)-induced calcium mobilization is monitored using either FLUOROSKAN ASCENT (Labsystems, Franklin, Mass.) or FLIPR (fluorometric imaging plate reader system, Molecular Devices, Sunnyvale, Calif.) instruments. Varying concentrations of the antagonists ruthenium red or capsazepine (RBI; Natick, Mass.) are added to cells concurrently with agonist (e.g., 25-50 nM capsaicin). For agonist-induced calcium responses, data obtained between 30 and 60 seconds after agonist application are used to generate the IC50 values. KALEIDAGRAPH software (Synergy Software, Reading, Pa.) is used to fit the data to the equation: y=a*(1/(1+(b/x)^c)) to determine the IC50 for the response. In this equation, y is the maximum fluorescence signal, x is the concentration of the agonist or antagonist, a is the Emax, b corresponds to the IC50 value and c is the Hill coefficient.
To measure the ability of a test compound to antagonize (inhibit) the response of cells expressing capsaicin receptors to capsaicin or other vanilloid agonist, the IC50 of capsaicin is first determined. An additional 20 μl of KRH buffer and 1 μl DMSO is added to each well of cells, prepared as described above. 100 μl capsaicin in KRH buffer is automatically transferred by the FLIPR instrument to each well. An 8-point concentration response curve, with final capsaicin concentrations of 1 nM to 3 μM, is used to determine capsaicin IC50.
Test compounds are dissolved in DMSO, diluted in 20 μl KRH buffer so that the final concentration of test compounds in the assay well is between 1 μM and 5 μM, and added to cells prepared as described above. The 96 well plates containing prepared cells and test compounds are incubated in the dark, at room temperature for 0.5 to 6 hours. It is important that the incubation not continue beyond 6 hours. Just prior to determining the fluorescence response, 100 μl capsaicin in KRH buffer at twice the IC50 concentration determined from the concentration response curve is automatically added by the FLIPR instrument to each well of the 96 well plate for a final sample volume of 200 μl and a final capsaicin concentration equal to the IC50. The final concentration of test compounds in the assay wells is between 1 μM and 5 μM. […] Antagonists of the capsaicin receptor decrease this response by at least about 20%, preferably by at least about 50%, and most preferably by at least 80% as compared to matched control. The concentration of antagonist required to provide a 50% decrease is the IC50 for the antagonist, and is preferably below 1 micromolar, 100 nanomolar, 10 nanomolar or 1 nanomolar. […]

T1 sequence (Q8NER1 whole entry): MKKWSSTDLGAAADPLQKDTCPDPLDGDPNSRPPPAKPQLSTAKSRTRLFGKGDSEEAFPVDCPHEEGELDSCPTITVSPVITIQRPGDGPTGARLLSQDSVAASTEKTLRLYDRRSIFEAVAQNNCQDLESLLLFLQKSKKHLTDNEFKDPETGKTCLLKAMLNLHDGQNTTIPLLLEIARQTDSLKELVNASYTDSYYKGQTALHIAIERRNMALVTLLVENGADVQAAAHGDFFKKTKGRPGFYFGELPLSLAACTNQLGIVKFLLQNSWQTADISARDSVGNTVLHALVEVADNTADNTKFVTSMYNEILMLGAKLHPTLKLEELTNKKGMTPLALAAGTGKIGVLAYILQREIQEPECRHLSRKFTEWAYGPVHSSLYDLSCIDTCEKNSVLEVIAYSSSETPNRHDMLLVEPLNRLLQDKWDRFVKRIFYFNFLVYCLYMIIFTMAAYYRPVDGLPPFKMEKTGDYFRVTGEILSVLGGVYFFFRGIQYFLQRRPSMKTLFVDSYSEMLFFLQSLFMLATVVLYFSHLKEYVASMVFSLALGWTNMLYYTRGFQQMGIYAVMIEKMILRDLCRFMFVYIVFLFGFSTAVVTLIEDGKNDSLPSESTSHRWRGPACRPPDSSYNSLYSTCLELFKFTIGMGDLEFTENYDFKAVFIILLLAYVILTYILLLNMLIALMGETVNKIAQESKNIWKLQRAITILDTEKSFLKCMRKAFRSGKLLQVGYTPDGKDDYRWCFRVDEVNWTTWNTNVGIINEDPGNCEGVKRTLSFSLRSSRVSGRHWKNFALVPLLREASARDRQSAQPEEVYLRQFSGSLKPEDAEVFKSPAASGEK

Take `CN(Cc1cc(Nc2ccc(C(F)(F)F)cc2)c2ccc(-c3ncccc3C(F)(F)F)nc2n1)S(C)(=O)=O` [Compound 70, N-methyl-N-({4-{[4-(trifluoromethyl)phenyl]amino}-7-[3-(trifluoromethyl)pyridin-2-yl]-1,8-naphthyridin-2-yl}methyl)methanesulfonamide]: the pIC50 is no less than 6.00. Under `COCc1cc(Nc2ccc(C(F)(F)F)cc2)c2ccc(-c3ncccc3F)nc2n1` [Compound 62, 7-(3-fluoropyridin-2-yl)-2-(methoxymethyl)-N-[4-(trifluoromethyl)phenyl]-1,8-naphthyridin-4-amine] stands no less than 6.00; under `COCc1cc(Nc2ccc(S(=O)(=O)C(F)(F)F)cc2)c2ccc(-c3ncccc3C(F)(F)F)nc2n1` [Compound 15, 2-(methoxymethyl)-7-[3-(trifluoromethyl)pyridin-2-yl]-N-{4-[(trifluoromethyl)sulfonyl]phenyl}-1,8-naphthyridin-4-amine], no less than 6.00; under `CCc1cc(Nc2ccc(C(F)(F)F)cn2)c2ccc(-c3ncccc3C(F)(F)F)nc2n1` [Compound 110, 2-ethyl-7-[3-(trifluoromethyl)pyridin-2-yl]-N-[5-(trifluoromethyl)pyridin-2-yl]-1,8-naphthyridin-4-amine], no less than 6.00. As for `COCc1cc(Nc2ccc(F)cc2)c2ccc(-c3ncccc3C(F)(F)F)nc2n1` [Compound 9, N-(4-fluorophenyl)-2-(methoxymethyl)-7-[3-(trifluoromethyl)pyridin-2-yl]-1,8-naphthyridin-4-amine], the figure is no less than 6.00; as for `CC(C)COCc1cc(Nc2ccc(F)cc2)c2ccc(-c3ncccc3C(F)(F)F)nc2n1` [Compound 54, N-(4-fluorophenyl)-2-(isobutoxymethyl)-7-[3-(trifluoromethyl)pyridin-2-yl]-1,8-naphthyridin-4-amine], no less than 6.00; as for `CCN(CC)Cc1cc(Nc2ccc(C(F)(F)F)cn2)c2ccc(-c3ncccc3C(F)(F)F)nc2n1` [Compound 94, 2-[(diethylamino)methyl]-7-[3-(trifluoromethyl)pyridin-2-yl]-N-[5-(trifluoromethyl)pyridin-2-yl]-1,8-naphthyridin-4-amine], no less than 6.00. As for `FC(F)(F)c1cccnc1-c1ccc2c(Nc3ccc(Cl)cn3)ccnc2n1` [Compound 139, N-(5-chloropyridin-2-yl)-7-[3-(trifluoromethyl)pyridin-2-yl]-1,8-naphthyridin-4-amine], the figure is no less than 6.00. For the molecule `CC(C)(C)c1ccc(Nc2cc(N3CCOCC3)nc3cc(-c4ncccc4C(F)(F)F)ccc23)cc1` [Compound 23, N-(4-tert-butylphenyl)-2-morpholin-4-yl-7-[3-(trifluoromethyl)pyridin-2-yl]quinolin-4-amine], the negative-log IC50 (pIC50) was no less than 6.00. Take `FC(F)(F)c1ccc(Nc2ccnc3nc(-c4ncccc4C(F)(F)F)cnc23)nc1` [Compound 113, 3-[3-(trifluoromethyl)pyridin-2-yl]-N-[5-(trifluoromethyl)pyridin-2-yl]pyrido[2,3-b]pyrazin-8-amine]: the negative logarithm of the IC50 (pIC50) was no less than 6.00. As for `CC(C)CCOc1cc(Nc2ccc(C(C)(C)C)cc2)c2ccc(-c3ncccc3C(F)(F)F)cc2n1` [Compound 32, N-(4-tert-butylphenyl)-2-(isopentyloxy)-7-[3-(trifluoromethyl)pyridin-2-yl]quinolin-4-amine], the figure is no less than 6.00; as for `FC(F)(F)c1ccc(Nc2cc(CN3CCCC3)nc3nc(-c4ncccc4C(F)(F)F)ccc23)nc1` [Compound 95, 2-(pyrolidin-1-ylmethyl)-7-[3-(trifluoromethyl)pyridin-2-yl]-N-[5-(trifluoromethyl)pyridin-2-yl]-1,8-naphthyridin-4-amine], no less than 6.00. In the case of `Cc1cccnc1-c1ccc2c(Nc3ccc(C(F)(F)F)cn3)ccnc2n1` [Compound 135, 7-(3-methylpyridin-2-yl)-N-[5-(trifluoromethyl)pyridin-2-yl]-1,8-naphthyridin-4-amine], the pIC50 is no less than 6.00. As for `COC(C)c1cc(Nc2ccc(C(C)=O)cn2)c2ccc(-c3ncccc3C(F)(F)F)nc2n1` (stereo not drawn) [Compound 120, 1-[6-({2-(1-methoxyethyl)-7-[3-(trifluoromethyl)pyridin-2-yl]-1,8-naphthyridin-4-yl}amino)pyridin-3-yl]ethanone], the figure is no less than 6.00. As for `CCCc1cc(Nc2ccc(C(F)(F)F)cn2)c2ccc(-c3ncccc3C(F)(F)F)nc2n1` [Compound 114, 2-propyl-7-[3-(trifluoromethyl)pyridin-2-yl]-N-[5-(trifluoromethyl)pyridin-2-yl]-1,8-naphthyridin-4-amine], the figure is no less than 6.00; as for `COC(C)c1cc(Nc2ccc(C(C)(C)O)cn2)c2ccc(-c3ncccc3C(F)(F)F)nc2n1` (stereo not drawn) [Compound 121, 2-[6-({2-(1-methoxyethyl)-7-[3-(trifluoromethyl)pyridin-2-yl]-1,8-naphthyridin-4-yl}amino)pyridin-3-yl]propan-2-ol], no less than 6.00; as for `FC(F)(F)c1ccc(Nc2cc(Cl)nc3cc(-c4ncccc4C(F)(F)F)ccc23)cc1` [Compound 20, 2-chloro-N-[4-(trifluoromethyl)phenyl]-7-[3-(trifluoromethyl)pyridin-2-yl]quinolin-4-amine], no less than 6.00. Turning to `CCCS(=O)(=O)c1ccc(Nc2cc(COCC(C)C)nc3nc(-c4ncccc4C(F)(F)F)ccc23)cc1` [Compound 73, 2-(isobutoxymethyl)-N-[4-(propylsulfonyl)phenyl]-7-[3-(trifluoromethyl)pyridin-2-yl]-1,8-naphthyridin-4-amine], the pIC50 was no less than 6.00. For `Cc1cc(Nc2ccc(C(F)(F)F)cn2)c2ccc(-c3ncccc3C(F)(F)F)nc2n1` [Compound 39, 2-methyl-7-[3-(trifluoromethyl)pyridin-2-yl]-N-[5-(trifluoromethyl)pyridin-2-yl]-1,8-naphthyridin-4-amine], the pIC50 was no less than 6.00. Under `CC(C)N(CCCO)Cc1cc(Nc2ccc(C(F)(F)F)cc2)c2ccc(-c3ncccc3C(F)(F)F)nc2n1` [Compound 78, 3-[isopropyl({4-{[4-(trifluoromethyl)phenyl]amino}-7-[3-(trifluoromethyl)pyridin-2-yl]-1,8-naphthyridin-2-yl}methyl)amino]propan-1-ol] stands no less than 6.00. On to `CC(=O)c1cc(Nc2ccc(C(F)(F)F)cn2)c2ccc(-c3ncccc3C(F)(F)F)nc2n1` [Compound 133, 1-(7-[3-(trifluoromethyl)pyridin-2-yl]-4-{[5-(trifluoromethyl)pyridin-2-yl]amino}-1,8-naphthyridin-2-yl)ethanone], for which the pIC50 is no less than 6.00. Under `CCOc1cc(Nc2ccc(C(C)(C)C)cc2)c2ccc(-c3ncccc3C(F)(F)F)nc2n1` [Compound 37, N-(4-tert-butylphenyl)-2-ethoxy-7-[3-(trifluoromethyl)pyridin-2-yl]-1,8-naphthyridin-4-amine] stands no less than 6.00; under `Oc1cc(Nc2ccc(C(F)(F)F)cn2)c2ccc(-c3ncccc3C(F)(F)F)nc2n1` [Compound 97, 7-[3-(trifluoromethyl)pyridin-2-yl]-4-{[5-(trifluoromethyl)pyridin-2-yl]amino}-1,8-naphthyridin-2-ol], no less than 6.00. As for `CC(C)COc1cc(Nc2ccc(C(C)(C)C)cc2)c2ccc(-c3ncccc3C(F)(F)F)cc2n1` [Compound 19, N-(4-tert-butylphenyl)-2-isobutoxy-7-[3-(trifluoromethyl)pyridin-2-yl]quinolin-4-amine], the figure is no less than 6.00.
